Measurements taken from PubChem BioAssay AID720646 (Broad Institute, 2013).
Calls of active or inactive are those of the source.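 How the source made its calls: active means fitted rise in melting shift crosses a set limit at or below the top valid dose tested; inconclusive means flat fit at mid-level activity, or a poor quality fit; inactive means the rest.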

Molecular target: Fibroblast growth factor 22 (Homo sapiens) (UniProt Q9HCT0)
Assay: FGF22 melting temperature shift by ligands – biophysical, thermal shift, cherry-pick retest, FGF22 synaptogenesis inhibitor project, dose response (AID 720646)
Conditions: recombinant FGF22 thermal shift, SYPRO orange fluorescence

Fibroblast growth factor 22 (Homo sapiens), sequence (Q9HCT0 whole entry, looked up): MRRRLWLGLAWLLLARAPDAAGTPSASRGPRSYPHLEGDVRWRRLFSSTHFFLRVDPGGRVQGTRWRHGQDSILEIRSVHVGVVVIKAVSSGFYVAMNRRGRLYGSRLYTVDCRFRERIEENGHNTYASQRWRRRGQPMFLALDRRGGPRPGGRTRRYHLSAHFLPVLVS

| SMILES | AC |
| --- | --- |
| COc1ccc(N2CCN(CCOc3ccc4c(C)cc(=O)oc4c3)CC2)cc1 | > 38 µM (inactive) |
| O=C(CC1SC(=O)NC1=O)Nc1ccc(Cl)cc1 (centres undefined) | 33.2 µM |
| CC1(C(=O)NS(=O)(=O)Cc2cccc(Cl)c2)CCN1C(=O)C1(c2ccc(Cl)cc2)CCC1 (centres undefined) | 24.4 µM |
| NC(=O)c1ccsc1NC(=O)COC(=O)Cc1c[nH]c2ccccc12 | 27.6 µM |
| O=C(O)c1[nH]c2ccc(Br)cc2c1CCN1C(=O)c2cccc([N+](=O)[O-])c2C1=O | > 38 µM (inactive) |
| COC(=O)C(C)Oc1cc(OC(C)C(=O)OC)c2c(C)c(Cl)c(=O)oc2c1 (centres undefined) | > 38 µM (inactive) |
| CSc1ccc(/C=N/NC(=O)c2ccc3nc[nH]c3c2)cc1 | 37.7 µM |
| CCC(=O)Nc1nc(C)c(-c2csc(Nc3ccccn3)n2)s1 | 21.6 µM |
| Cc1[nH]c2ccc(C(=O)OCC(=O)Nc3cccc(S(N)(=O)=O)c3)cc2c1C | 10.1 µM |
| CNC[C@H]1Oc2ccc(NC(=O)Cc3cn(C)c4ccccc34)cc2C(=O)N([C@H](C)CO)C[C@H]1C | > 42 µM (inactive) |
| Cn1c(=O)c2c(-c3ccccc3)n(-c3cc(Cl)c([N+](=O)[O-])cc3O)cc2n(C)c1=O | 28.3 µM |
| Cc1cc(C)cc(NC(=O)CN2C(=O)NC(Cc3c[nH]c4ccccc34)C2=O)c1 (centres undefined) | > 38 µM (inactive) |
| Nc1nnc(CC(=O)N/N=C/c2cc([N+](=O)[O-])cc(Br)c2O)s1 | 24.7 µM |
| COc1ccc(NC(=O)CCCN2C(=O)CN(C)C2=O)c(OC)c1 | > 38 µM (inactive) |
| CC1([N+](=O)[O-])COP(=O)(NC2CC2)OC1 (centres undefined) | 21.5 µM |
| O=S(=O)(Nc1nnc(C(F)(F)F)s1)c1ccc(Cl)cc1 | 37.5 µM |
| Cc1onc(-c2ccccc2)c1C(=O)Nc1ncc([N+](=O)[O-])s1 | 34 µM |

| SMILES | AC |
| --- | --- |
| O=C(Cc1n[nH]c(=O)[nH]c1=O)N/N=C/c1c(O)ccc2ccccc12 | > 38 µM (inactive) |
| N#Cc1ccc(NC(=O)Nc2cccc(C#N)c2)cc1 | 30.1 µM |
| CC(=O)Nc1cccc(C(=O)N/N=C/c2c[nH]c3ccccc23)c1 | 13.7 µM |
| CC1C=NC(S(=O)(=O)N2CC[C@@H]3[C@@H](CO)N(C)c4ccc(-c5ccc(F)cc5)cc4[C@@H]32)=N1 (some centres undefined) | > 38 µM (inactive) |
| O=C(Nc1ccc(S(=O)(=O)N2CCOCC2)cc1)c1ccc(F)cc1 | > 38 µM (inactive) |
| C[C@@H]1CN([C@H](C)CO)C(=O)Cc2cc(N(C)C)ccc2O[C@@H]1CN(C)Cc1ccc(Cl)c(Cl)c1 | 37.3 µM |
| O=C(N[C@H]1C=C[C@H](CC(=O)N2CCCCC2)O[C@H]1CO)c1cccc(F)c1 | 35.5 µM |
| CC(C)c1c(C(=O)N/N=C/c2c[nH]c3ccccc23)nnn1-c1nonc1N | 27.4 µM |
| Cc1ccc(NC(=O)c2ccc(OCc3c(C)noc3C)cc2)c(C)c1 | 34.2 µM |
| O=C(N/N=C/c1c[nH]c2ccccc12)c1cccs1 | 23.4 µM |
| C[C@@H]1CN([C@@H](C)CO)S(=O)(=O)c2ccc(-c3cccc(C#N)c3)cc2O[C@@H]1CN(C)C(=O)Nc1cc(F)ccc1F | > 38 µM (inactive) |
| COc1ccc(/C=N/Nc2ccc([N+](=O)[O-])cc2)cc1O | 36.6 µM |
| CCC(CC)CN1CCC(CN2C(=O)C(=O)NC[C@@H]2CC(C)C)CC1 | > 38 µM (inactive) |
| O=C(N/N=C/c1c[nH]c2ccccc12)c1cccc(Cl)c1 | 27.9 µM |
| O=S1(=O)N=C(N(Cc2cccs2)c2ccc(O)cc2)c2ccccc21 | 20.4 µM |
| Cc1cc(C(=O)N/N=C/c2c[nH]c3ccccc23)cs1 | 30.3 µM |
| O=C(N/N=C\c1c[nH]c2ccccc12)c1ccc(O)cc1 | 16.8 µM |
